# Experimental data reported in ChEMBL document CHEMBL3862009 (Bioorg Med Chem Lett, 2016).
# Columns and labels:
# [1] = target: T1, Histamine H4 receptor (Homo sapiens, UniProt Q9H3N8); test: Antagonist activity at human histamine H4 receptor expressed in human SH-SY5Y cell membranes assessed as inhibition of Imetit-induced [35S]GTPgammaS binding; format: functional
# [2] = target: T2, Histamine H3 receptor (Homo sapiens, UniProt Q9Y5N1); test: Displacement of [125I]iodoproxyfan from human H3 receptor expressed in HEK293 cell membranes after 1 hr
# [3] = system: HEK293; test: Selectivity ratio of Ki for human H3 receptor expressed in HEK293 cell membranes to Kb for human histamine H4 receptor expressed in human SH-SY5Y cell membranes; format: cell-based
# [4] = target: T1, Histamine H4 receptor; test: Intrinsic activity at human histamine H4 receptor expressed in human SH-SY5Y cell membranes by [35S]GTPgammaS binding assay; format: functional
# [5] = target: T2, Histamine H3 receptor; test: Antagonist activity at human histamine H3 receptor
# [6] = target: T2, Histamine H3 receptor; test: Binding affinity to histamine H3 receptor (unknown origin)
# [7] = target: T1, Histamine H4 receptor; test: Binding affinity to histamine H4 receptor (unknown origin)
# T2 sequence (Q9Y5N1 whole entry): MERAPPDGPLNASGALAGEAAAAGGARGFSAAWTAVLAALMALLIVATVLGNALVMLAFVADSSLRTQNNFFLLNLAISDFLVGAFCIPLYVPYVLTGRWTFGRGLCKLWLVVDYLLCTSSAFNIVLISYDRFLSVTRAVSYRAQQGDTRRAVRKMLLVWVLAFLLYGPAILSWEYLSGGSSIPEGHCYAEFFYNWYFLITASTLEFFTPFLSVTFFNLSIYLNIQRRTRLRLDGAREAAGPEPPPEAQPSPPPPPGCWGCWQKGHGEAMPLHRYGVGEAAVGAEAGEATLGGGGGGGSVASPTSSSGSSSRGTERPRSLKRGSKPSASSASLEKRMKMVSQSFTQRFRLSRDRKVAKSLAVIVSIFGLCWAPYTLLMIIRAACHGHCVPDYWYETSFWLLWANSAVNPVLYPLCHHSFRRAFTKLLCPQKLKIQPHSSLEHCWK
Compound,Kb [1] [nM],Intrinsic activity [4],also measured
Cn1cnc(CCCOC(c2ccccc2)c2nc3ccccc3s2)c1 (configuration not stated),> 10000,0,
Cn1cnc(CCN)c1 [N-METHYLHISTAMINE],,,Ki [6]: 20000 nM; Ki [7]: 11000 nM
Cc1[nH]cnc1CCCOC(c1ccccc1)c1nc2ccccc2s1 (configuration not stated),1.6,0,
Cn1cncc1CCCOC(c1ccccc1)c1nc2ccccc2s1 (configuration not stated),> 10000,0,
c1ccc(C(OCCCn2ccnc2)c2nc3ccccc3s2)cc1 (configuration not stated),> 10000,0,
Cc1nc(CCCOC(c2ccccc2)c2nc3ccccc3s2)c[nH]1 (configuration not stated),> 10000,0,
c1ccc(C(OCc2c[nH]cn2)c2nc3ccccc3s2)cc1 (configuration not stated),399,0,
c1ccc(C(OCCn2ccnc2)c2nc3ccccc3s2)cc1 (configuration not stated),> 10000,0,
c1ccc(C(OCCCCn2ccnc2)c2nc3ccccc3s2)cc1 (configuration not stated),> 10000,0,
c1ccc(C(OCCc2c[nH]cn2)c2nc3ccccc3s2)cc1 (configuration not stated),3.7,0,
c1ccc(-c2ccc(C(OCCCc3c[nH]cn3)c3ccccc3)cc2)cc1 (configuration not stated),17,0,

# Second part, led by results:
Kb [1] [nM],Intrinsic activity [4],Compound,also measured
19,0,c1ccc(C(OCCCc2c[nH]cn2)c2ccccc2)cc1,Ki [2]: 17 nM; Selectivity ratio [3]: 0.9; Ki [5]: 17 nM
100,0,c1ccc(C(OCCCc2c[nH]cn2)c2ccc3ccccc3c2)cc1 (configuration not stated),
1.1,0,c1ccc(C(OCCCc2c[nH]cn2)c2nc3ccccc3s2)cc1 (configuration not stated),Ki [2]: 34 nM; Selectivity ratio [3]: 31
32,0,c1ccc(C(OCCCc2c[nH]cn2)c2cccnc2)cc1 (configuration not stated),
29,0,c1ccc(C(OCCCc2c[nH]cn2)c2cncnc2)cc1 (configuration not stated),
